What was measured:
PI3Ka E545K + p85 = PI3Ka E545K + p85 (Homo sapiens, UniProt P42336, E545K); test: Lipid kinase screening (ADP-Glo), PI3Ka E545K + p85; type: biochemical
Description: (§1) The lipid kinase screening for ICL-CCIC-0019, CK14, CK145 (5), CK146 (4) and CK147 (8) (testing concentration for all compounds: 10 μM) was performed by MRC PPU International Centre for Kinase Profiling (Dundee, UK). The lipid kinase screening panel includes 15 human recombinant lipid kinases and the tests used Promega ADP Glo^TM High Throughput Assay kit (Promega, Southampton, UK). For each assay, reference compounds were used as quality control. Finally, mean percentage activity inhibited by compounds and standard deviation for all the repeats were calculated.

HCT-116 cells = test: Anti-proliferative SRB assay, HCT-116; type: cell-based; settings: Homo sapiens
Description: (§2) Half-maximal growth inhibitory concentrations (GI50) were determined using sulforhodamine B (SRB) assay as described elsewhere. In brief, cells were seeded in 96-wells at respective cell densities determined by their cell growth curves. After 24 h, the cells were treated in six replicates with medium or different concentrations of CHKA inhibitors in medium and incubated for another 72 h. On completion of incubation, the cells were fixed with 10% trichloroacetic acid (TCA) and stained with 0.4% SRB in 1% acetic acid. The stained protein was solubilized with 10 mM Tris base and optical density values were measured at 540 nm using a Multiskan® EX Micro plate photometer (Thermo Scientific, Loughborough, UK). Growth inhibition curves were plotted as percentage of the control groups and GI50 data were determined by least squares fitting method using GraphPad Prism 7.0. All the chemicals used in this experiment were obtained from Sigma-Aldrich (Gillingham, UK).

CHK a (CHKA) = CHK a (CHKA) (Homo sapiens, UniProt P35790); test: Lipid kinase screening (ADP-Glo), CHKA; type: biochemical; settings: for % Inhibition CHK a: 10 μM
CHK a (CHKA), sequence (P35790 whole entry): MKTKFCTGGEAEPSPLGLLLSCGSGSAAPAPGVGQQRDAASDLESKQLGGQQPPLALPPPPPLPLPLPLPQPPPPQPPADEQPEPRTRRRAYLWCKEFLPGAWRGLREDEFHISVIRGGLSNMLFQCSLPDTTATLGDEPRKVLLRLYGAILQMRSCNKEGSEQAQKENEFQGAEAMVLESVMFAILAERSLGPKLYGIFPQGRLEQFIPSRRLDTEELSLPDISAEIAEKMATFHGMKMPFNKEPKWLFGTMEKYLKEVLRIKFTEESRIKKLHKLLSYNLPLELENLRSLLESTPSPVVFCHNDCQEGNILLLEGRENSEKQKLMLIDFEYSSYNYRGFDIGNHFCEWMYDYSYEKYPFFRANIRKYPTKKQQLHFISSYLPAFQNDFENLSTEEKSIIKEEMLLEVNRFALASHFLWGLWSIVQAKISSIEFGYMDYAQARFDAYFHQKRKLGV
Description: as §1

R1-D567 cell line = test: Anti-proliferative SRB assay, R1-D567; type: cell-based; settings: Homo sapiens; R1-D567, PSMA −; Table S3, ± SD
Description: as §2

R1AD1 cell line = test: Anti-proliferative SRB assay, R1AD1; type: cell-based; settings: Homo sapiens; R1AD1, PSMA −; Table S3, ± SD
Description: as §2

Caco-2 cells = test: Anti-proliferative SRB assay, Caco-2; type: cell-based; settings: Homo sapiens; Caco-2, SRB, 72 h; Table S2, ± SD
Description: as §2

A549 cells = test: Anti-proliferative SRB assay, A549; type: cell-based; settings: Homo sapiens, 72 h, Table S2, ± SD
Description: as §2

[1] = Human microsomal metabolic stability assay; type: in vitro ADME; settings: for PCT_LBF % (percentage of compound removed compared to liver blood flow) / microsomal CLint / half-life / Predicted in vivo clearance: human; for microsomal CLint / half-life: human liver microsome S9, human liver microsome S9; for microsomal CLint: read-out: Human Microsomal Metabolic Stability: Clint; for half-life: read-out: Human Microsomal Metabolic Stability: Half-life; for Predicted in vivo clearance: scaled from microsomal clearance (liver weight, microsomes per liver, liver blood flow)
Description: (§3) The ADME study for ICL-CCIC-0019, CK14, CK145 (5), CK146 (4) and CK147 (8) was performed by Charles River Drug Discovery Services (Essex, UK).
(§4) The predicted in vitro pharmacokinetic characteristics of compounds were evaluated by four ADME assays, namely kinetic solubility assay, metabolic stability assay using human liver microsome S9, permeability and efflux study using the Caco-2 cell line, and matrix stability assay using fasted state simulated gastric fluid (FaSSGF). All tested CHKA inhibitors were highly soluble (>150 μM) in 0.1 M PBS (2% DMSO) (Table 1). […] The in vivo clearance was calculated to predict the actual clearance in humans by scaling the clearance values, which takes into account liver weight, microsomes per liver and liver blood flow. […] In Caco-2 cell permeability assay, drug permeability was investigated and presented as apparent permeability coefficients (Papp) in A to B (A-B, apical to basolateral direction) and B to A (B-A, basolateral to apical direction).

PI3K b = PI3K b (Homo sapiens, UniProt P42338); test: Lipid kinase screening (ADP-Glo), PI3K b; type: biochemical
PI3K b, sequence (P42338 whole entry): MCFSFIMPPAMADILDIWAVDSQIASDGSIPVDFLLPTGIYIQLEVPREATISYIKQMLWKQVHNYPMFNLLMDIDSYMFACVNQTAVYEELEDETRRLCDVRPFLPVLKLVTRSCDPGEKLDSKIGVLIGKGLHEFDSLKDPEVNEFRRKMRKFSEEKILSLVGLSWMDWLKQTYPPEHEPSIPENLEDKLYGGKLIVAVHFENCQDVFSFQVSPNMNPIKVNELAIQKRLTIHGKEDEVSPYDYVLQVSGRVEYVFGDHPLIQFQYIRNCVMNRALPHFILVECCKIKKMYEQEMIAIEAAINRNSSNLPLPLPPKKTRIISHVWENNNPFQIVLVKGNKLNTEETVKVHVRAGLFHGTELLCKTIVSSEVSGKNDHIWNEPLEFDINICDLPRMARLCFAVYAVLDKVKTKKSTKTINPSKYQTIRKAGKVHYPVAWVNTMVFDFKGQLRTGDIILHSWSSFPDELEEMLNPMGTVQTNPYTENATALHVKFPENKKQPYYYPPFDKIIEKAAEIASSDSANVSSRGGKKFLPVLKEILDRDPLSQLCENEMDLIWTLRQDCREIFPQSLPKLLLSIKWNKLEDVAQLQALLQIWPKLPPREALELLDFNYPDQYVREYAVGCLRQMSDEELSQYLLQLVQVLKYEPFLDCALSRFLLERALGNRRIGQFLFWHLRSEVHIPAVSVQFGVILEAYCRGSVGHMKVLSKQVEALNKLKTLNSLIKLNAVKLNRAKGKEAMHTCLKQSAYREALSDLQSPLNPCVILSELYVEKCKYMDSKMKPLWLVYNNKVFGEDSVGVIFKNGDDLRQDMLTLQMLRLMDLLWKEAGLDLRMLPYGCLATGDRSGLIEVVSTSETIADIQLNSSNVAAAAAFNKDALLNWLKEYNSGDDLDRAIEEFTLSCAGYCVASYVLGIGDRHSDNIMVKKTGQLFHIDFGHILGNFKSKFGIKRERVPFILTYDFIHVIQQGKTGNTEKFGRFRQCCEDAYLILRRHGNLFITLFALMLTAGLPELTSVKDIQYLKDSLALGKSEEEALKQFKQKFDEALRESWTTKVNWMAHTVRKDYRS
PI3K b, sequence (P27986 whole entry partner): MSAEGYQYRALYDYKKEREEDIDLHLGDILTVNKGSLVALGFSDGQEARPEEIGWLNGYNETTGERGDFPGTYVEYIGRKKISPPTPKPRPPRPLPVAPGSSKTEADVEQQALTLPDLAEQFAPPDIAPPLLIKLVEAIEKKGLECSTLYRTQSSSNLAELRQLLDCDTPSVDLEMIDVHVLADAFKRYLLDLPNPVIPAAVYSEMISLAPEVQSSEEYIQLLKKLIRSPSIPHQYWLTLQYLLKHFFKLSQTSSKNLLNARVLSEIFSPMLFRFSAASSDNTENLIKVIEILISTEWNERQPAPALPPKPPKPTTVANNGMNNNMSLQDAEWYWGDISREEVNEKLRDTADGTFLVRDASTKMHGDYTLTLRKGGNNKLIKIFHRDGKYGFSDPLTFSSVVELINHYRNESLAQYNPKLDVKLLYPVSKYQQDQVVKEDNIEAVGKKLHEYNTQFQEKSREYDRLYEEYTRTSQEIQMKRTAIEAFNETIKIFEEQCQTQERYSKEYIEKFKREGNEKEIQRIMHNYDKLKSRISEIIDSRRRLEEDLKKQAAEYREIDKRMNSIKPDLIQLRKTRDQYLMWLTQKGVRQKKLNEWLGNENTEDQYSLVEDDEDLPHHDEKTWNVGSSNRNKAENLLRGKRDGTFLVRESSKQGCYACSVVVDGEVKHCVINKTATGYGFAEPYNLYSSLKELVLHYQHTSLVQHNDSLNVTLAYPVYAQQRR
Description: as §1

LNCap cell line = test: Anti-proliferative SRB assay, LNCap; type: cell-based; settings: Homo sapiens, PSMA +, Table S3, ± SD
Description: as §2

PC3 cell line = test: Anti-proliferative SRB assay, PC3; type: cell-based; settings: Homo sapiens, PC-3; PC3, PSMA −; Table S3, ± SD
Description: as §2

SPHK1 = SPHK1 (Homo sapiens, UniProt Q9NYA1); test: Lipid kinase screening (ADP-Glo), SPHK1; type: biochemical
SPHK1, sequence (Q9NYA1 whole entry): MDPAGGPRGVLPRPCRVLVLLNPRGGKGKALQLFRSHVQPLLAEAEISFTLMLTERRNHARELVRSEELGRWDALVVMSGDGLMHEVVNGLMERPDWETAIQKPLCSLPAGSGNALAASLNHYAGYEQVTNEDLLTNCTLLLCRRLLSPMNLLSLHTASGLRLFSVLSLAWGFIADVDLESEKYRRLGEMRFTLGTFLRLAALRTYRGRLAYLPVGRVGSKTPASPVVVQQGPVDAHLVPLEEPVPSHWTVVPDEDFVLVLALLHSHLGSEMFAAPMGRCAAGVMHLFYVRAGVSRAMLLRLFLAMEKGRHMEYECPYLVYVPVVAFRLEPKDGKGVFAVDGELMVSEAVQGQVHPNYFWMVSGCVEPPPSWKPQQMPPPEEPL
Description: as §1

[2] = Caco-2 permeability and efflux study; type: in vitro ADME, human; settings: human; for efflux ratio: Caco-2, read-out: Efflux ratio (Papp B-A/Papp A-B); for Papp A→B: Caco-2, apical to basolateral, read-out: Papp A-B; for Papp B→A: Caco-2, basolateral to apical, read-out: Papp B-A
Description: as §3, §4

Kinetic solubility assay = type: physicochemical; settings: 0.1 M PBS (2% DMSO), aqueous buffer, kinetic from dmso stock; read-out: Kinetic Solubility: Solubility
Description: as §3, §4

PI4K2a = PI4K2a (Homo sapiens, UniProt Q9BTU6); test: Lipid kinase screening (ADP-Glo), PI4K2a; type: biochemical
PI4K2a, sequence (Q9BTU6 whole entry): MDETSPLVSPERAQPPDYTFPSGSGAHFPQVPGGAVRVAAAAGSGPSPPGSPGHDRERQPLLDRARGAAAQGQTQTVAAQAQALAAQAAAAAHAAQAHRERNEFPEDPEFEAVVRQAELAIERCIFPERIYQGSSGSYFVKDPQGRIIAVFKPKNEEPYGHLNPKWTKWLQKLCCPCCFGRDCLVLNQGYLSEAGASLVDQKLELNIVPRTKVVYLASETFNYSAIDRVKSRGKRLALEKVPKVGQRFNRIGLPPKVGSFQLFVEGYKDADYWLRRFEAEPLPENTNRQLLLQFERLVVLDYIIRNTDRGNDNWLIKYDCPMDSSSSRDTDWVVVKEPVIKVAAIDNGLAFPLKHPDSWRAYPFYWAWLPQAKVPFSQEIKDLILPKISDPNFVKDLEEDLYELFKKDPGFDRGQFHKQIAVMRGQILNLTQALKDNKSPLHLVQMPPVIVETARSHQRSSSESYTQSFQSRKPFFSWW
Description: as §1

DGK g = DGK g (Homo sapiens, UniProt P49619); test: Lipid kinase screening (ADP-Glo), DGK g; type: biochemical
DGK g, sequence (P49619 whole entry): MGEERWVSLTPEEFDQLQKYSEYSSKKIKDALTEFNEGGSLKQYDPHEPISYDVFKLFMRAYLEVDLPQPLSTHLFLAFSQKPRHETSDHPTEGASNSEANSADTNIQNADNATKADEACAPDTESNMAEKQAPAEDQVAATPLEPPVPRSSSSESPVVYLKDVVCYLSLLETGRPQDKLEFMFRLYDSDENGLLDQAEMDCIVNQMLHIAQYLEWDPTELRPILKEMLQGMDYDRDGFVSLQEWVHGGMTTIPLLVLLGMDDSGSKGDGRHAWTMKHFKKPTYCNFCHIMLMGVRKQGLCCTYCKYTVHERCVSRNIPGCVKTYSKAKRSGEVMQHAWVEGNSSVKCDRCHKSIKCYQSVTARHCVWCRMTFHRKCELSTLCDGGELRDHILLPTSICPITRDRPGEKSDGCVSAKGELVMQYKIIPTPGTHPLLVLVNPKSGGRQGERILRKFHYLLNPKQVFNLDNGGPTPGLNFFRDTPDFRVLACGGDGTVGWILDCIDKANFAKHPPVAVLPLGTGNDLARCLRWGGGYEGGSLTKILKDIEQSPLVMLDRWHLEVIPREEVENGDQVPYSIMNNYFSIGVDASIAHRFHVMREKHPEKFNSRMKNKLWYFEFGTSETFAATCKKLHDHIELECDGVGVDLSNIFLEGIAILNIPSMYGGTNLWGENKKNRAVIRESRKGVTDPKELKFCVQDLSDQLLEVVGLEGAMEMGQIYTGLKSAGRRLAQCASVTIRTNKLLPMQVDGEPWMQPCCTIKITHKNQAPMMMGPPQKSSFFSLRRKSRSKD
Description: as §1

SPHK2 = molecular target: T1, SPHK2 (Homo sapiens, UniProt Q9NRA0); test: Lipid kinase screening (ADP-Glo), SPHK2; type: biochemical
T1 sequence (Q9NRA0 1-654): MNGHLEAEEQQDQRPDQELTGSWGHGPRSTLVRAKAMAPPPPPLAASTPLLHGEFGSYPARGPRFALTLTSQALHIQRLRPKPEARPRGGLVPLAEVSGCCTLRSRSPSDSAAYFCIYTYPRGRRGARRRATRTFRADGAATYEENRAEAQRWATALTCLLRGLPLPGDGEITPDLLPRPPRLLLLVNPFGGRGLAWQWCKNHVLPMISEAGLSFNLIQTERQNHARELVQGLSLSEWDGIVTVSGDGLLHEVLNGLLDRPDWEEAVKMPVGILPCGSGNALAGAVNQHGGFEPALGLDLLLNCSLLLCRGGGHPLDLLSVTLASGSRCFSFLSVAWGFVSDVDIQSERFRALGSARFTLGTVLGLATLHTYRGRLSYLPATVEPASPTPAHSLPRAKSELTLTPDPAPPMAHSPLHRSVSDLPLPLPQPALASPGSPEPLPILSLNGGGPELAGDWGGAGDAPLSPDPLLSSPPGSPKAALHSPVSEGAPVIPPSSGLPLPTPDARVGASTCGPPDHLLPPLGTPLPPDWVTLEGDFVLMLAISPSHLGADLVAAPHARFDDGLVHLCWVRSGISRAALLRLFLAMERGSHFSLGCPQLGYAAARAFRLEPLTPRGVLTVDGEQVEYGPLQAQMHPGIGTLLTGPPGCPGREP
Description: as §1

[3] = molecular target: phosphatidylinositol 4-kinase beta (PIK4CB) (Homo sapiens, UniProt Q9UBF8); test: Lipid kinase screening (ADP-Glo), PIK4CB; type: biochemical
Description: as §1

C4-2B cell line = test: Anti-proliferative SRB assay, C4-2B; type: cell-based; settings: Homo sapiens, PSMA +, Table S3, ± SD
Description: as §2

[4] = HCT-116, PSMA −, Table S3, ± SD
[5] = HCT-116, SRB, 72 h, Table S2, ± SD

PI3Ka E545K + p85, sequence (P42336 whole entry E545K): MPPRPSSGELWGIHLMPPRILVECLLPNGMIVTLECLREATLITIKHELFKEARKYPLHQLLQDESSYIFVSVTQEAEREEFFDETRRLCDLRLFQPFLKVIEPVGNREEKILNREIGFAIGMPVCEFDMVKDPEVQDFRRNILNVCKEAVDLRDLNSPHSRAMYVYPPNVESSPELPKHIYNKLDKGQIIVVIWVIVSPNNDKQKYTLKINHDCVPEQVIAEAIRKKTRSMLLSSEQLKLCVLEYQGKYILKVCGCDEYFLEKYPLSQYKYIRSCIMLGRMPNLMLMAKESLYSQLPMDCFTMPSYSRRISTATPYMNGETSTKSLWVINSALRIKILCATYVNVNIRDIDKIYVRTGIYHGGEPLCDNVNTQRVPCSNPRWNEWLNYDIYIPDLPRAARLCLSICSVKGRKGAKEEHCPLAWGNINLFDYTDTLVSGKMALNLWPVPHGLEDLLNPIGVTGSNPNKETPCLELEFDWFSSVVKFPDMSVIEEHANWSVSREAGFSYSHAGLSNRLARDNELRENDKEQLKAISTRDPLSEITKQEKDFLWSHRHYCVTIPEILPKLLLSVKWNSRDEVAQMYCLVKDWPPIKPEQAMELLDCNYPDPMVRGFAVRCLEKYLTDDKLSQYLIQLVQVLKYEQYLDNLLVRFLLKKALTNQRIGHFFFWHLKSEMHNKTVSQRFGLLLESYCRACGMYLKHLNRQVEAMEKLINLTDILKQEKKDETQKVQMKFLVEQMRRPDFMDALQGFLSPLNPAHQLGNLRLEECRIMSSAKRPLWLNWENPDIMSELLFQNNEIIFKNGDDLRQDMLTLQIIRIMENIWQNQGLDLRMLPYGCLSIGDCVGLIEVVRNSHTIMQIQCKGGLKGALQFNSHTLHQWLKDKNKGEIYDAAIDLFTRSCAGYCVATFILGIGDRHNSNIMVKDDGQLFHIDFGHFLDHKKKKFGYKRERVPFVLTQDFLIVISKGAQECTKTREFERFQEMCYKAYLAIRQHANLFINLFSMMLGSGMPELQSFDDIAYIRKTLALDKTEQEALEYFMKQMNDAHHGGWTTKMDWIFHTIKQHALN
PI3Ka E545K + p85, sequence (P27986 whole entry partner): as the sequence (P27986 whole entry partner) above

Row | SMILES | inhibition at 10 µM (PI3Ka E545K + p85) [%] | GI50 (HCT-116 cells; [4]) [µM] | GI50 (HCT-116 cells; [5]) [µM] | inhibition at 10 µM (CHK a (CHKA)) [%] | % Inhibition CHK a (CHK a (CHKA)) [%] | GI50 (R1-D567 cell line) [µM] | GI50 (R1AD1 cell line) [µM] | GI50 (Caco-2 cells) [µM] | GI50 (A549 cells) [µM] | Human Microsomal Metabolic Stability: Remaining % ([1]; human liver microsome S9) [%] | Predicted in vivo clearance [1] [mL/min/kg] | inhibition at 10 µM (PI3K b) [%] | GI50 (LNCap cell line) [µM] | GI50 (PC3 cell line) [µM] | inhibition at 10 µM (SPHK1) [%] | efflux ratio [2] | Papp A→B [2] [×10⁻⁶ cm/s] | Papp B→A [2] [×10⁻⁶ cm/s] | solubility kinetic (Kinetic solubility assay) [µM] | inhibition at 10 µM (PI4K2a) [%] | further results
1 | CN(C)c1cc[n+](CCCCCCCCCCCCCC[n+]2ccc(N3CCNCC3)cc2)cc1 [CK146] | -1 | 4.76 ± 0.8 | 4.76 ± 0.8 | 69 | 69.1 | 0.87 ± 0.03 | 5.67 ± 2.33 | 3.09 ± 0.05 | 2.07 ± 0.2 | 127 | <10 | -45.9 | 1.92 ± 0.99 | 4.73 ± 0.81 | 2.1 | > 2.6 | < 0.1 | 0.3 | 158 | -13.4 | PCT_LBF % (percentage of compound removed compared to liver blood flow) [1]: <45%; microsomal CLint [1]: < 14 µL/min/mg; half-life [1]: > 1.67 h; inhibition at 10 µM (DGK g): 10.7%; inhibition at 10 µM (SPHK2): 10%; inhibition at 10 µM [3]: 47%; GI50 (C4-2B cell line): 4.22 ± 0.43 µM
2 | CC(=O)NCCCCC(NC(=O)OC(C)(C)C)C(=O)N1CCN(c2cc[n+](CCCCCCCCCCCCCC[n+]3ccc(N(C)C)cc3)cc2)CC1 (centres unmarked) [CK145] | -1.8 | 103 ± 6.27 | 6.63 ± 0.2 | 63 | 62.9 | 40.4 ± 4.56 | 53.4 ± 2.27 | 10.8 ± 1 | 2.47 ± 0.06 | 2 | 19 | -15.8 | 39 ± 8.56 | 84.9 ± 7.03 | 0.6 | > 2.8 | < 0.1 | 0.3 | 178 | -11.4 | metabolic stability (in words) ([1]; human liver microsome S9): Rapid decomposition; inhibition at 10 µM (DGK g): 13.2%; inhibition at 10 µM (SPHK2): 13.2%; inhibition at 10 µM [3]: 51%; % Inhibition PIK4CB ([3]; 10 μM): 50.6%; GI50 (C4-2B cell line): 63 ± 12.1 µM
3 | CN(C)c1cc[n+](CCCCCCCCCCCC[n+]2ccc(N(C)C)cc2)cc1 [ICL-CCIC-0019] | -6.1 | 0.42 ± 0.03 | 0.42 ± 0.03 | 53 | 53.4 | 0.32 | 0.4 ± 0.01 | 1.19 ± 0.04 | 0.05 ± 0.005 | 92 | <10 | -39.6 | 0.3 ± 0.06 | 0.79 ± 0.03 | -3.7 | > 8.6 | < 0.1 | 0.9 | 161 | -13.9 | PCT_LBF % (percentage of compound removed compared to liver blood flow) [1]: <45%; microsomal CLint [1]: < 14 µL/min/mg; half-life [1]: > 1.67 h; inhibition at 10 µM (DGK g): 7.8%; inhibition at 10 µM (SPHK2): 22.4%; inhibition at 10 µM [3]: -24.1%; GI50 (C4-2B cell line): 1.2 ± 0.31 µM

Reference: article PMC8309005, “Novel Non-Congeneric Derivatives of the Choline Kinase Alpha Inhibitor ICL-CCIC-0019” (Pharmaceutics, 2021)
